Measured values: ChEMBL document CHEMBL6109125, “A New Protractor Potentiates Glucagon-Like Peptide 1 with Slow-Release Depot and Long-Term Action” (J Med Chem, 2025)
The source made the active and inactive calls. The rule behind the calls is not given here.

Columns and labels:
[1] = Half life in BALB/c mouse at 0.5 mg/kg, sc measured up to 48 hrs by LC-MS/MS analysis; type: ADME, organism-based; conditions: in vivo
[2] = system: Mus musculus; assay: Anti-hyperglycemic activity in type-2 diabetes db/db mouse assessed as blood glucose level at 3 to 600 nmol/kg, sc measured up to 48 hrs; type: functional; conditions: dose 3-600 nmol/kg
[3] = system: Mus musculus; assay: Anti-hyperglycemic activity in type-2 diabetes db/db mouse assessed as regulation of blood glucose level at 3 to 600 nmol/kg, sc measured up to 96 hrs; type: functional, organism-based
[4] = system: Mus musculus; assay: Anti-hyperglycemic activity in type-2 diabetes db/db mouse assessed as reduction in food intake at 100 nmol/kg, sc measured for 48 hrs; type: functional, organism-based
[5] = Tmax in Sprague-Dawley rat at 1 mg/kg, sc measured up to 48 hrs by LC-MS/MS analysis; type: ADME, organism-based; conditions: in vivo
[6] = Clearance in BALB/c mouse at 0.5 mg/kg, iv measured up to 48 hrs by LC-MS/MS analysis; type: ADME, organism-based; conditions: in vivo
[7] = Clearance in Sprague-Dawley rat at 1 mg/kg, iv measured up to 48 hrs by LC-MS/MS analysis; type: ADME, organism-based; conditions: in vivo
[8] = Selectivity ratio of EC50 for agonist activity at GLP-1R (unknown origin) expressed in HEK293 cells co-expressing CRE-Luc assessed as increase in intracellular cAMP accumulation in presence of 2% HSA to EC50 for agonist activity at GLP-1R (unknown origin) expressed in HEK293 cells co-expressing CRE-Luc assessed as increase in intracellular cAMP accumulation; type: cell-based
[9] = molecular target: T1, Glucagon-like peptide 1 receptor (Homo sapiens, UniProt P43220); assay: Agonist activity at GLP-1R (unknown origin) expressed in HEK293 cells co-expressing CRE-Luc assessed as increase in intracellular cAMP accumulation in presence of 10% FBS by luciferase based assay; type: functional, cell-based; conditions: read-out: EC50
T1 sequence (P43220 whole entry): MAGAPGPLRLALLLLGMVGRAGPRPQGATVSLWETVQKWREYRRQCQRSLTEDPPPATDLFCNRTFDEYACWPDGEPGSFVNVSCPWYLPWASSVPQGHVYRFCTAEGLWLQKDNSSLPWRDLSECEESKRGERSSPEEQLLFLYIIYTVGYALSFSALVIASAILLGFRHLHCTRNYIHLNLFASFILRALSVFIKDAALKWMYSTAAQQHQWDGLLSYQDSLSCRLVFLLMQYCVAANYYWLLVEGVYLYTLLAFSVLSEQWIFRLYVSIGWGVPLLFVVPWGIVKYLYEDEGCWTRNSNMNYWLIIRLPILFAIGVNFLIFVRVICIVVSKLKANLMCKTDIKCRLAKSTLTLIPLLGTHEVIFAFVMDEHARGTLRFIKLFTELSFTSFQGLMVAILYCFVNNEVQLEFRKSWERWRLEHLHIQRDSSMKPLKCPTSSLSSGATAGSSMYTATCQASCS

[10] = Stability in Sprague-Dawley rat plasma assessed as compound remaining measured after 96 hrs by RP-HPLC analysis; type: ADME, cell-free; conditions: read-out: Stability
[11] = Tmax in BALB/c mouse at 0.5 mg/kg, sc measured up to 48 hrs by LC-MS/MS analysis; type: ADME, organism-based; conditions: in vivo
[12] = molecular target: T1, Glucagon-like peptide 1 receptor; assay: Agonist activity at GLP-1R (unknown origin) expressed in HEK293 cells co-expressing CRE-Luc assessed as increase in intracellular cAMP accumulation by luciferase based assay; type: functional, cell-based; conditions: read-out: EC50
[13] = system: Mus musculus; assay: Anti-hyperglycemic activity in 16 hr-fasted type-2 diabetes db/db mouse assessed as homeostasis of blood glucose level at 100 nmol/kg, sc pretreated for 0.5 hrs followed by glucose administration measured for 2 hrs; type: functional, organism-based; conditions: time 2.5 hrs
[14] = molecular target: T2, Dipeptidyl peptidase 4 (Rattus norvegicus, UniProt P14740); assay: Stability in Sprague-Dawley rat plasma assessed as DPP4-mediated drug degradation by measuring Lys(CBB) metabolite formation measured after 96 hrs by mass spectrometry; type: ADME, cell-free
T2 sequence (P14740 whole entry): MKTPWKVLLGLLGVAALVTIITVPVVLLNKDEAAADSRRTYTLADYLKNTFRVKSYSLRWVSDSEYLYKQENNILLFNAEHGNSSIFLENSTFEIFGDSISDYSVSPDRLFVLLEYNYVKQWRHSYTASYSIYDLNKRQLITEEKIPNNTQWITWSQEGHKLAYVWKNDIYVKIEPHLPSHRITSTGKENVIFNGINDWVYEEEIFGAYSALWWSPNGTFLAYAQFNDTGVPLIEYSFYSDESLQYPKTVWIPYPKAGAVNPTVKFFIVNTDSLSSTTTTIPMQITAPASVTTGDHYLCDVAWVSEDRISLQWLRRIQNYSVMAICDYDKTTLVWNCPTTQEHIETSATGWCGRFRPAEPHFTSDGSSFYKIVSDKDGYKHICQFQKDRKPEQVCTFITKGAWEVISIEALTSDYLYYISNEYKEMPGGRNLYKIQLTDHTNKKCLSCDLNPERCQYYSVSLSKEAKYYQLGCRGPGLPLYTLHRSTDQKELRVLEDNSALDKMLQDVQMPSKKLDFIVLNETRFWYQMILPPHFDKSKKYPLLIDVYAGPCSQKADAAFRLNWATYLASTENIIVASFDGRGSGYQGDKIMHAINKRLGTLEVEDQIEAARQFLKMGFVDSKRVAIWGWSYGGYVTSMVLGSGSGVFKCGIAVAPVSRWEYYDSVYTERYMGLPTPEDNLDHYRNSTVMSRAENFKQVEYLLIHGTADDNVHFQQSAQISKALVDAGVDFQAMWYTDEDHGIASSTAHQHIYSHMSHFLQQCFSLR

[15] = Apparent volume of distribution in Sprague-Dawley rat at 1 mg/kg, iv measured up to 48 hrs by LC-MS/MS analysis; type: ADME, organism-based; conditions: in vivo, read-out: Vz
[16] = AUClast in Sprague-Dawley rat at 1 mg/kg, sc measured up to 48 hrs by LC-MS/MS analysis; type: ADME, organism-based; conditions: in vivo
[17] = molecular target: Albumin (Homo sapiens, UniProt P02768); assay: Binding affinity to human serum albumin immobilized on AR2G biosensor assessed as dissociation constant incubated for 3 mins by BLI assay; type: ADME
Sequence of Albumin (P02768 whole entry): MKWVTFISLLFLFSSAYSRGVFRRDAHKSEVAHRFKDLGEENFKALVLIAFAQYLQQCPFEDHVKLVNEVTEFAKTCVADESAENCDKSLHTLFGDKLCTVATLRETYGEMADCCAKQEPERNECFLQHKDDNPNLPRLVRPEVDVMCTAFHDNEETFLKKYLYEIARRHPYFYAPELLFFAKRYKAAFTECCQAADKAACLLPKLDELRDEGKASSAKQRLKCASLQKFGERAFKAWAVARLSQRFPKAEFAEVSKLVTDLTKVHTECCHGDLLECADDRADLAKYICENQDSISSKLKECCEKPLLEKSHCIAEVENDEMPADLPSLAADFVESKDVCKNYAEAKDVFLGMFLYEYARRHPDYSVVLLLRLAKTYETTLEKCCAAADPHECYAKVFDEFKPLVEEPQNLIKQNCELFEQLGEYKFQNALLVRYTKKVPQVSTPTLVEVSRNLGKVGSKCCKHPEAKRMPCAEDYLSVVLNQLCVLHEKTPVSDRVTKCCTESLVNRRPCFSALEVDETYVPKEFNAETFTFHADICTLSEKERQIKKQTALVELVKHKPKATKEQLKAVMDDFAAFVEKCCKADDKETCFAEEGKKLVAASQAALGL

[18] = system: Mus musculus; assay: Anti-hyperglycemic activity in 16 hr-fasted type-2 diabetes db/db mouse at 100 nmol/kg, sc pretreated for 0.5 hrs followed by glucose administration measured for 2 hrs by OGTT method; type: functional, organism-based; conditions: time 2.5 hrs
[19] = molecular target: T2, Dipeptidyl peptidase 4; assay: Stability in Sprague-Dawley rat plasma assessed as DPP4-mediated drug degradation by measuring Lys(CBB)Gly metabolite formation measured after 96 hrs by mass spectrometry; type: ADME, cell-free
[20] = MRT in Sprague-Dawley rat at 1 mg/kg, sc measured up to 48 hrs by LC-MS/MS analysis; type: ADME, organism-based; conditions: in vivo
[21] = Stability in Sprague-Dawley rat plasma assessed as drug degradation by measuring half life measured after 96 hrs by RP-HPLC analysis; type: ADME, cell-free
[22] = Binding affinity to collagen type I (unknown origin) immobilized on AR2G biosensor assessed as dissociation constant incubated for 3 mins by BLI assay; set-up: species or system Homo sapiens
[23] = AUClast in BALB/c mouse at 0.5 mg/kg, sc measured up to 48 hrs by LC-MS/MS analysis; type: ADME, organism-based; conditions: in vivo
[24] = MRT in BALB/c mouse at 0.5 mg/kg, sc measured up to 48 hrs by LC-MS/MS analysis; type: ADME, organism-based; conditions: in vivo
[25] = Half life in Sprague-Dawley rat at 1 mg/kg, sc measured up to 48 hrs by LC-MS/MS analysis; type: ADME, organism-based; conditions: in vivo
[26] = Apparent volume of distribution in BALB/c mouse at 0.5 mg/kg, iv measured up to 48 hrs by LC-MS/MS analysis; type: ADME, organism-based; conditions: in vivo, read-out: Vz
[27] = system: Mus musculus; assay: Anti-hyperglycemic activity in type-2 diabetes db/db mouse assessed as regulation of blood glucose level administered subcutaneously measured up to 96 hrs; type: functional, organism-based; conditions: dose 3-600 nmol/kg, route sc
[28] = AUClast in BALB/c mouse at 0.5 mg/kg, iv measured up to 48 hrs by LC-MS/MS analysis; type: ADME, organism-based; conditions: in vivo
[29] = AUClast in Sprague-Dawley rat at 1 mg/kg, iv measured up to 48 hrs by LC-MS/MS analysis; type: ADME, organism-based; conditions: in vivo
[30] = molecular target: T1, Glucagon-like peptide 1 receptor; assay: Agonist activity at GLP-1R (unknown origin) expressed in HEK293 cells co-expressing CRE-Luc assessed as increase in intracellular cAMP accumulation in presence of 2% HSA by luciferase based assay; type: functional, cell-based; conditions: read-out: EC50
[31] = system: Mus musculus; assay: Anti-hyperglycemic activity in well-fed type-2 diabetes db/db mouse assessed as blood glucose level at 100 nmol/kg, sc administered on every 48 hrs; type: functional

Work on `CCOc1ccc(Nc2ccc(/C(=C3C=C/C(=[N+](\CC)Cc4cccc(S(=O)(=O)[O-])c4)C=C\3C)c3ccc(N(CC)Cc4cccc(S(=O)(=O)NCCCCCC(=O)NCCOCCOCCOCCOCCOCCOCCOCCOCCC(=O)NCCCC[C@H](NC(=O)[C@@H](NC(=O)[C@H](CC(C)C)NC(=O)[C@H](Cc5c[nH]c6ccccc56)NC(=O)[C@H](C)NC(=O)[C@@H](NC(=O)[C@H](Cc5ccccc5)NC(=O)[C@H](CCC(=O)O)NC(=O)[C@H](CCCNC(=N)N)NC(=O)[C@H](C)NC(=O)[C@H](C)NC(=O)[C@H](CCC(N)=O)NC(=O)CNC(=O)[C@H](CCC(=O)O)NC(=O)[C@H](CC(C)C)NC(=O)[C@H](Cc5ccc(O)cc5)NC(=O)[C@H](CO)NC(=O)[C@H](CO)NC(=O)[C@@H](NC(=O)[C@H](CC(=O)O)NC(=O)[C@H](CO)NC(=O)[C@@H](NC(=O)[C@H](Cc5ccccc5)NC(=O)[C@@H](NC(=O)CNC(=O)[C@H](CCC(=O)O)NC(=O)CNC(=O)[C@@H](N)Cc5c[nH]cn5)[C@@H](C)O)[C@@H](C)O)C(C)C)[C@@H](C)CC)C(C)C)C(=O)NCC(=O)N[C@@H](CCCNC(=N)N)C(N)=O)c4)cc3C)cc2)cc1` yielded a half-life [1] of 32 h, an Activity [2] of less than 10 mM and an EC50 [3] of 30 nmol/kg. For the same molecule, the Activity [4] was “Active”, the Tmax [5] was 12 h and the clearance [6] was 0.0667 mL/min/kg. It also gave a clearance [7] of 0.25 mL/min/kg, a Ratio EC50 [8] of 5.38 and an EC50 [9] of 0.21 pM. The remaining at 96 h [10] was 40%, the Tmax [11] was 12 h and the EC50 [12] was 0.37 pM. The Activity [13] was “Active”, the Drug metabolism [14] was “metabolite_detected” and the Vd [15] was 0.15 L/kg. The AUC [16] was 28.81 h/µg/mL, the Kd [17] was 520000 pM and the Activity [18] was “Active”. The Drug metabolism [19] was “metabolite_detected”, the MRT [20] was 18 h and the half-life [21] was 24 h. It also gave a Kd [22] of 390000 pM, an AUC [23] of 123.884 h/µg/mL and an MRT [24] of 18.1 h. For the same molecule, the half-life [25] was 32 h, the Vd [26] was 0.056 L/kg and the Activity [27] was “Dose-dependent-effect”. For the same molecule, the AUC [28] was 111.886 h/µg/mL, the AUC [29] was 67.28 h/µg/mL and the EC50 [30] was 1.99 pM. It also gave an Activity [31] of less than 10 mM.
